Results as given in patent US20230277632A1, “MODIFIED PlySs2 LYSINS AND ANTIBIOTIC COMBINATIONS FOR USE AGAINST GRAM-POSITIVE BACTERIA” (ContraFect Corporation, priority 2020, published 2023).
Read-outs that look alike come from different tables or passages of the source.

System: MSSA strains
Test: Checkerboard assay: pp296 or CF-301 with oxacillin
Type: cell-based, Staphylococcus aureus
Details: for MIC: Staphylococcus aureus, read-out: Single agent MICs; for FIC / MIC in combination: pp296 + oxacillin; for MIC in combination: unit assumed; for ΣFICmin: with oxacillin
Description: In some embodiments, the present modified lysin polypeptides reduce the minimum inhibitory concentration (MIC) of an antibiotic. Any known method to assess MIC may be used. In some embodiments, a checkerboard assay is used to determine the effect of a lysin on antibiotic concentration. The checkerboard assay is based on a modification of the CLSI method for MIC determination by broth microdilution (See Clinical and Laboratory Standards Institute (CLSI), CLSI. 2015. Methods for Dilution Antimicrobial Susceptibility Tests for Bacteria That Grow Aerobically; Approved Standard-10th Edition. Clinical and Laboratory Standards Institute, Wayne, Pa., which is herein incorporated by reference in its entirety and Ceri et al. 1999. J. Clin. Microbiol. 37: 1771-1776, which is also herein incorporated by reference in its entirety).
Checkerboards are constructed by first preparing columns of e.g., a 96-well polypropylene microtiter plate, wherein each well has the same amount of antibiotic diluted 2-fold along the horizontal axis. […] The lysin and antibiotic dilutions are then combined, so that each column has a constant amount of antibiotic and doubling dilutions of lysin, while each row has a constant amount of lysin and doubling dilutions of antibiotic. Each well thus has a unique combination of lysin and antibiotic. Bacteria are added to the drug combinations at a given concentration. […] Summation fractional inhibitory concentrations (ΣFICs) are calculated for each drug and the minimum ΣFIC value (ΣFICmin) is used to determine the effect of the lysin/antibiotic combination.
The ability of CF-301 or a modified lysin polypeptide pp296 to synergize with oxacillin was assessed using a checkerboard analysis. For the checkerboard assay, a total of 50 μl of Mueller-Hinton broth is distributed into each well of microdilution plates. Then, a first antibiotic of a combination is serially diluted along the ordinate, while a second drug is diluted along the abscissa. An inoculum equal to a 0.5 McFarland turbidity standard is prepared from each bacterial isolate in Mueller-Hinton broth. Each microtiter well is then inoculated with 100 μl of a bacterial inoculum of 5×10^5 CFU/ml, and the plates are incubated at 37° C. for 18 h under aerobic conditions. The resulting checkerboard contains each combination of two antibiotics, with wells that contain the highest concentration of each antibiotic at opposite corners. […] To quantify the interactions between the antibiotics being tested, the FIC index (the combination of antibiotics that produced the greatest change from the individual antibiotic's MIC) value is calculated for each strain and antibiotic combination as follows:
(A/MICA)+(B/MICB)=FICA+FICB=FIC index,
where A and B are the MIC of each agent in combination in a single well, and MICA and MICB are the MIC of each drug when used individually. The combination is considered strongly synergistic when the FIC index is ≤0.5 and synergistic when the FIC index is >0.5-<1.

With `Cc1onc(-c2ccccc2)c1C(=O)N[C@@H]1C(=O)N2[C@@H]1SC(C)(C)[C@@H]2C(=O)O` [Oxacillin, oxacillin] the MIC (ATCC 29213 / MSSA, MSSA ATCC 29213) was 0.5 mg/L, the MIC (MSSA, MSSA JMI-6625) was 1 mg/L and the MIC (MSSA, MSSA JMI-6885) was 1 mg/L. The MIC (MSSA, MSSA JMI-6886) was 1 mg/L, the MIC (MSSA, MSSA JMI-7054) was 1 mg/L and the MIC (MSSA, MSSA JMI-7160) was 1 mg/L. The MIC (MSSA, MSSA JMI-38739) was 0.5 mg/L, the MIC (MSSA, MSSA JMI-38986) was 0.5 mg/L and the MIC (MSSA, MSSA JMI-40671) was 0.5 mg/L. For the same molecule, the MIC (MSSA, MSSA JMI-46142) was 0.5 mg/L, the FIC (MSSA ATCC 29213) was 0.25 and the MIC in combination (MSSA ATCC 29213) was 0.125 mg/L. The FIC (MSSA JMI-6625) was 0.25, the MIC in combination (MSSA JMI-6625) was 0.25 mg/L and the FIC (MSSA JMI-6885) was 0.125. The MIC in combination (MSSA JMI-6885) was 0.125 mg/L, the FIC (MSSA JMI-6886) was 0.25 and the MIC in combination (MSSA JMI-6886) was 0.25 mg/L. The FIC (MSSA JMI-7054) was 0.25, the MIC in combination (MSSA JMI-7054) was 0.25 mg/L and the FIC (MSSA JMI-7160) was 0.25. For the same molecule, the MIC in combination (MSSA JMI-7160) was 0.25 mg/L, the FIC (MSSA JMI-38739) was 0.25 and the MIC in combination (MSSA JMI-38739) was 0.125 mg/L. The FIC (MSSA JMI-38986) was 0.25, the MIC in combination (MSSA JMI-38986) was 0.125 mg/L and the FIC (MSSA JMI-40671) was 0.125. For the same molecule, the MIC in combination (MSSA JMI-40671) was 0.0625 mg/L, the FIC (MSSA JMI-46142) was 0.25 and the MIC in combination (MSSA JMI-46142) was 0.125 mg/L.

B1: CF-301: Lysin CF-301, comparator lysin in the oxacillin checkerboard analysis (protein)
chain: MTTVNEALNNVRAQVGSGVSVGNGECYALASWYERMISPDATVGLGAGVGWVSGAIGDTISAKNIGSSYNWQANGWTVSTSGPFKAGQIVTLGATPGNPYGHVVIVEAVDGDRLTILEQNYGGKRYPVRNYYSAASYRQQVVHYITPPGTVAQSAPNLAGSRSYRETGTMTVTVDALNVRRAPNTSGEIVAVYKRGESFDYDTVIIDVNGYVWVSYIGGSGKRNYVATGATKDGKRFGNAWGTFK
Molecule B1 has a ΣFICmin (MSSA ATCC 29213) of 0.5, a ΣFICmin (MSSA JMI-6625) of 0.375 and a ΣFICmin (MSSA JMI-6885) of 0.5. For the same molecule, the ΣFICmin (MSSA JMI-6886) was 0.5, the ΣFICmin (MSSA JMI-7054) was 0.5 and the ΣFICmin (MSSA JMI-7160) was 0.5. For the same molecule, the ΣFICmin (MSSA JMI-38739) was 0.5, the ΣFICmin (MSSA JMI-38986) was 0.375 and the ΣFICmin (MSSA JMI-40671) was 0.3125. It also gave a ΣFICmin (MSSA JMI-46142) of 0.375.
